Four molecules from patent US11667663B2, “Cyclic dinucleotides as anticancer agents” (BRISTOL-MYERS SQUIBB COMPANY, priority 2017, dated 2023) can be followed below.

The test system of one assay is NF-κB pathway. The assay can be described thus: STING THP1 reporter assay, NF-κB pathway (SEAP). It counts as cell-based. The conditions noted are these: THP1-Dual cells, 10% human plasma, SEAP readout, 100% = 100 μM cGAMP, read-out: THP1 Reporter Assays EC50 NFkB. The source says: (§1) STING THP1 Reporter Assay Protocol
(§2) THP1-Dual™ cells were derived from the human THP-1 monocyte cell line by stable integration of two inducible reporter constructs. To this end, THP1-Dual™ cells allow the simultaneous study of the NF-κB pathway, by monitoring the activity of SEAP, and the IRF pathway by assessing the activity of a secreted luciferase (Lucia). Both reporter proteins are readily measurable in the cell culture supernatant when using QUANTI-Blue™, a SEAP detection reagent, and QUANTI-Luc™, a luciferase detection reagent.
(§3) THP1-Dual™ cells induce the activation of NF-κB in response to STING agonists. They also trigger the IRF pathway upon stimulation with STING agonists, such as cGAMP. Here, the THP-1-Dual cells were used to assess STING binders for function on the cellular level.
(§4) Serial dilutions of compounds in DMSO were added to low volume 384 well plates at 100 nl/well using an ECHO acoustic dispenser (Labcyte, model 550) to achieve final starting concentration of 100 μM in cell suspension. THP-1 Dual™ STING reporter cells (Invivogen, Dual cells cat #THPD-nfis) were added to the plates with compounds at 15,000 cells in 10 μL per well in RPMI media (Gibco, cat #11875) containing 10% human plasma in a low volume 384-well black wall clear bottom tissue culture plate (Corning, cat #3542) for SEAP assay and low volume solid white plate (Corning, cat #3826) for luciferase assay. One column of the plate was reserved for treatment with cGAMP at 100 μM for 100% activation calculation and one column for no treatment (DMSO only) for baseline activation. Plates were then incubated in 37 OC incubator at 5% CO2 for 20 hours.
(§5) In the SEAP assay, 5 μl of 2× QuantiBlue (Invivogen, cat #Rep-qb2) is added to 384 well black plates seeded with THP1 cells and incubated at 37° C. for 2 hours. Plates were read on the Envision (Perkin Elmer) at 620 nm wavelength (OD620). In the luciferase assay, 5 μl of Quantiluc (Invivogen, Rep-qlc2) is added to white 384 well plates seeded with THP1 cells and read at 5 minutes on the Envision (Perkin Elmer) using a luminescence protocol (RLU). For both cell lines, 100% activation was determined by value (RLU) of THP-1 Dual STING cells stimulated with 100 μM cGAMP (Invivogen, cat #TLRL-NACGA23-5).

The target in assay [1] is T1, STING WT: His-TVMV-S-hSTING(155-341)-H232R (Homo sapiens, UniProt Q86WV6, H232R).
T1 construct: STING WT: His-TVMV-S-hSTING(155-341)-H232R
T1 sequence (Q86WV6 with tags, fused parts or gaps H232R): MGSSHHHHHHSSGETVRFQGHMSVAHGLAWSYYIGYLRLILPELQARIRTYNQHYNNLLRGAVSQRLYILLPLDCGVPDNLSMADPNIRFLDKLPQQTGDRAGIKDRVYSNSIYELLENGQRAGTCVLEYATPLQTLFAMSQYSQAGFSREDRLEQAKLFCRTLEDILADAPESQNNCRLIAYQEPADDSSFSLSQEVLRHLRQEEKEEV
Briefly: STING HTRF competition binding assay, STING WT. Conditions: 20 nM His-tagged STING cytoplasmic domain WT, 200 nM fluorescein-labeled cGAMP analog probe, one hour; read-out: HTRF Binding Assays IC50 WT. As to the method: (§6) Sting HTRF Binding Assays
(§7) A time resolved FRET-based competition binding assay was used to assess test article binding to STING WT and STING AQ. His-tagged STING cytoplasmic domain (WT or AQ) at a concentration of 20 nM was incubated with 2.5 nM Tb-labeled anti-His antibody, test compound, and fluorescein-labeled cGAMP analog probe (BioLog cat. no. C195) at a concentration of 200 nM (STING WT) or 40 nM (STING AQ) in PBS containing 0.005% Tween-20 and 0.1% BSA for one hour. Fluorescence at 495 nm and 520 nm was measured using an EnVision microplate reader to quantify FRET between Tb-labeled anti-His antibody and fluorescein-labeled probe. Background was defined as the signal obtained in the absence of STING protein, and background subtracted FRET ratios were normalized to the maximum signal obtained in the absence of test compound. These values were converted to a percent inhibition. Percent inhibition was determined for test compounds at 11 concentrations. The IC50, defined as the concentration of competing test compound needed to reduce specific binding of the probe by 50%, was calculated using the 4 parameter logistic equation to fit the data
In general terms: In TR-FRET formats the signal depends on donor and acceptor labels being close together.

In assay [2] the target is T2, STING AQ: His-TVMV-S-hSTING(155-341)-G230A-R293Q (Homo sapiens, UniProt Q86WV6, G230A/H232R/R293Q).
T2 construct: STING AQ: His-TVMV-S-hSTING(155-341)-G230A-R293Q
T2 sequence (Q86WV6 with tags, fused parts or gaps G230A/H232R/R293Q): as the sequence (Q86WV6 with tags, fused parts or gaps H232R) above, with G99A, R162Q counted along it
The assay can be described thus: STING HTRF competition binding assay, STING AQ. Conditions: 20 nM His-tagged STING cytoplasmic domain AQ, 40 nM fluorescein-labeled cGAMP analog probe, one hour; read-out: HTRF Binding Assays IC50 AQ. As to the method: as §6, §7

In the next assay the test system is IRF pathway. The assay can be described thus: STING THP1 reporter assay, IRF pathway (Lucia luciferase). It counts as cell-based. Conditions: THP1-Dual cells, 10% human plasma, luciferase readout, 100% = 100 μM cGAMP, read-out: THP1 Reporter Assays EC50 IRF3.
Text: as §1, §2, §3, §4, §5
For orientation: Reporter assays use an easily measured gene product as a stand-in for the process of interest.

By EC50 is commonly meant the concentration that produces a half-maximal response. A word on the IC50: it is the midpoint of a concentration-inhibition curve.

Molecules are shown by their SMILES. Like-named read-outs stand apart in the source and are kept apart here.

`NC(=O)c1cc([C@@H]2O[C@@H]3COP(=O)(S)O[C@H]4[C@@H](F)[C@H](n5cnc6c(N)ncnc65)O[C@@H]4COP(=O)(S)O[C@@H]2[C@@H]3O)[nH]n1` (single isomer, unassigned) [Example 1-1]: the EC50 in the assay with NF-κB pathway (20 hours) and in the assay with IRF pathway (20 hours) was above 100000 nM throughout. The IC50 in assay [1] stood at 2400 nM; in assay [2], 90 nM.
For the molecule `NC(=O)c1cc([C@@H]2O[C@@H]3COP(=O)(S)O[C@H]4[C@@H](F)[C@H](n5cnc6c(N)ncnc65)O[C@@H]4COP(=O)(S)O[C@@H]2[C@@H]3O)[nH]n1` (single isomer, unassigned) [Example 1-2], the EC50 with NF-κB pathway (20 hours) and with IRF pathway (20 hours) was above 100000 nM in each case. Further, the IC50 in assay [1] was 910 nM; in assay [2], 30 nM.
Turning to `NC(=O)c1cc([C@@H]2O[C@@H]3COP(=O)(S)O[C@H]4[C@@H](F)[C@H](n5cnc6c(N)ncnc65)O[C@@H]4COP(=O)(S)O[C@@H]2[C@@H]3O)[nH]n1` (single isomer, unassigned) [Example 1-3], the results for the EC50 with NF-κB pathway (20 hours) and with IRF pathway (20 hours) were 6800 nM and 4000 nM, respectively. In addition, the IC50 worked out at 50 nM in assay [1] and 10 nM in assay [2].
Consider `NC(=O)c1cc([C@@H]2O[C@@H]3COP(O)(=S)O[C@H]4[C@@H](F)[C@H](n5cnc6c(N)ncnc65)O[C@@H]4COP(O)(=S)O[C@@H]2[C@@H]3O)[nH]n1` (stereo partly shown) [Example 1-4], for which the EC50 with NF-κB pathway (Homo sapiens, THP-1, 20 h) was above 100000 nM; in the assay with IRF pathway (Homo sapiens, THP-1, 20 h) it was above 100000 nM. The figures for the IC50 in assay [1] and in assay [2] were 680 nM and 40 nM, respectively.
